Legend:
[1] = In vivo bioavailability after oral feeding; set-up: species or system Balb/c mice; conditions: after oral administration
Protocol: EtOAc extract of Murraya koenigii was orally feeded to normal healthy Balb/c (100 mg/kg body weight) and blood was collected from retro orbital plexus after 30 min interval by glass capillary. Control blood was collected from the mice before the […] of extract. The Institutional Animal Ethical Committee had approved the study. Blood serum was isolated and the serum protein was separated by centrifugation in ice-cold acetone. Supernatant was evaporated to dryness and residual part was dissolved in minimum volume of MeOH and injected into the HPLC column.

In vivo toxicity in mice = assay: In vivo toxicity in mice
Protocol: Animals were examined for 1 month after the administration of acute toxic dose (150 mg/kg/day); there was no change in behavior, feeding habit, total body mass and in number of biochemical and haematological parameters.

human Hsp90 = assay: Surface plasmon resonance binding to immobilized Hsp90; conditions: SPR, Hsp90-mahanine complex
Protocol: The portion of the sensorgram which corresponds to the dissociation of mahanine from Hsp90 was analyzed by the BIA evaluation program 2.1 to obtain the dissociation rate (kd) (FIG. 22). The experimental data fits well with the single exponential kinetic model used. Some experiments were repeated at a flow rate of 5 μl/min to check the effect of possible rebinding. Rebinding and mass transfer limitation was also checked by the repetition of the experiments at lower levels of immobilized Hsp90. […] Using the corresponding kd values nonlinear curve fitting of the association phase of the corresponding sensorgram was carried out with the BIA evaluation program 2.1 to obtain association rate (ka).
All the solutions were passed through a 0.22 micron Millipore filter and de-gassed in vacuum for 6-7 minutes at room temperature. For coupling Hsp90 to the SPR sensor chips, 400 μl (50 μg/ml) human Hsp90 was dialysed over night at 4° C. against coupling buffer containing 5 mM Na2HPO4, pH 7.4 and 150 mM NaCl to remove Tris, which interferes with the coupling. Before coupling, carboxymethyl-dextran sensor chips (CM5, Lot 1170768, Biacore, Upsala Sweden) were incubated with running buffer containing 10 mM HEPES, pH 7.4, 0.15 M KCl and 0.001% Tween-20 to prevent the unspecific binding of proteins to the capillaries in a BIAcore apparatus for 10 minutes at 25° C. at a flow rate of 5 μl/min. […]

ME180 [2] = assay: 7-AAD flow cytometric apoptosis, ME180; format: cell-based, human; conditions: ME180, 25 μM mahanine
Protocol: U87MG, LN229, HeLa, SiHa and ME180 (1×10^6 cells) cells were cultured in 6-well plates in presence or absence of Mahanine (25 μM) for 24 hrs. Cells were washed in PBS, incubated with 7-Aminoactinomycin D (7-AAD) at 4° C. for 20 min and processed. Data acquisition was done on a FACSCalibur flow cytometer (BD) at excitation wavelength at 488 nm and emission wavelength at 647 nm and analyzed with CellQuestPro software.

[3] = tested on: Hsp90 client proteins (Akt); assay: Western blot of Hsp90 client proteins; format: cell-based, human; conditions: cervical and pancreatic cancer cell lines, 24 hrs
Protocol: Different human cancer cells (1×10^6 cells) were incubated with complete medium alone or with different dose of Mahanine (10-20 μM) as indicated. Cells were detached using trypsin-EDTA solution. They were collected by centrifugation at 1500 g for 10 mins and lysed by sonication. Aliquots containing 60 μg total cellular protein were separated by 10% SDS-PAGE and transferred to nitrocellulose membrane (MILIPORE, Bedford, Mass., USA). Membrane was blocked with blocking buffer for 1 hour at room temperature and probed with desired primary antibody Hsp90, Hsp70, Hsp40, p23, HOP, Cdc37, B-Raf, Stat-3, Bcl-xl, Akt, PARP, β-actin (Cell signaling technology, USA) and caspase-3 (Santa Cruz, USA), caspase9, cytochrome c (cell signaling technology, USA) for overnight at 4° C. followed by HRP conjugated secondary antibody and detected by ECL. For the detection of association of the Hsp90-Cdc37, Hsp90-p23 and Hsp90-HOP, total cell lysate (400 μg) was treated with anti-Hsp-90 antibody (1:100 dilutions) and incubated overnight at 4° C. The chaperonic complex was resolved by SDS-PAGE (10%), transferred and probed separately with anti-Cdc37, anti-HOP, anti-p23 and anti-Hsp-90 antibodies. In the few immunoprecipitation experiments anti-Cdc37 used as precipitating antibody and Hsp90 was used as detection antibody. […]

AsPC1 = assay: MTT cell viability assay, AsPC1; format: cell-based, human; conditions: Homo sapiens; AsPC1, 48 hrs
Protocol: (§1) Human cervical cancer cell lines (HeLa, ME-180 and SiHa), brain tumor cell lines (U87MG, U373MG, U87MG EGFRvIII, T98G, A172 and LN229), lymphoid leukemia (MOLT-3, MOLT-4, REH and CEMC-7), myloid leukemia (K562), pancreatic cancer (MIAPaCa-2, AsPC-1, Panc-1 and Panc 10.05), lung cancer (A549) and colon cancer (HCT116 and SW480) cell lines from American Type Culture Collection, Manassas, Va., USA were grown in IMDM or RPMI (cell specific) Medium supplemented with 10% fetal bovine serum and 1% antibiotic-antimycotic. Cells were cultured in 37° C. in an atmosphere of 5% CO2.
(§2) Viability of cancer cell lines after treatment as at the indicated times was determined by MTT assay. Briefly, 10,000 cells were plated in triplicate in 96 well plates and incubated for 24 and 48 hours in complete media in presence of varying dose of mahanine (0-50 μM). 100 ug MTT was added in each well. Incubate the plate for 1-4 hours at 37° C. and humidified 5% CO2 atmosphere. Absorbance was recorded at 550 nm with 96 well plate readers.

[4] = Tissue toxicity in K562 xenograft bearing nude mice; format: in vivo
ME180 [5] = assay: MTT cell viability assay, ME180; format: cell-based; conditions: Homo sapiens, ME-180, ME180, 48 hr
Protocol: as §1, §2

Hsp90-Cdc37 complex = assay: Co-immunoprecipitation of Hsp90-Cdc37 complex; format: cell-based, human
Protocol: Different human cancer cells (1×10^6 cells) were incubated with complete medium alone or with different dose of Mahanine (10-20 μM) as indicated. Cells were detached using trypsin-EDTA solution. They were collected by centrifugation at 1500 g for 10 mins and lysed by sonication. Aliquots containing 60 μg total cellular protein were separated by 10% SDS-PAGE and transferred to nitrocellulose membrane (MILIPORE, Bedford, Mass., USA). Membrane was blocked with blocking buffer for 1 hour at room temperature and probed with desired primary antibody Hsp90, Hsp70, Hsp40, p23, HOP, Cdc37, B-Raf, Stat-3, Bcl-xl, Akt, PARP, β-actin (Cell signaling technology, USA) and caspase-3 (Santa Cruz, USA), caspase9, cytochrome c (cell signaling technology, USA) for overnight at 4° C. followed by HRP conjugated secondary antibody and detected by ECL. For the detection of association of the Hsp90-Cdc37, Hsp90-p23 and Hsp90-HOP, total cell lysate (400 μg) was treated with anti-Hsp-90 antibody (1:100 dilutions) and incubated overnight at 4° C. The chaperonic complex was resolved by SDS-PAGE (10%), transferred and probed separately with anti-Cdc37, anti-HOP, anti-p23 and anti-Hsp-90 antibodies. In the few immunoprecipitation experiments anti-Cdc37 used as precipitating antibody and Hsp90 was used as detection antibody. For the proteasomal inhibition assay cells were pretreated with 10 μM MG132 for 1 hr and then cells are exposed in 20 μM mahanine for 24 hrs. For proteasomal inhibition assay at 6 hrs incubation in MIAPaCa-2, cells were pre-incubated with 20 μM MG132 for 1 hr and then cells were exposed in 30 μM mahanine.

Compound: CC(C)=CCCC1(C)C=Cc2c(c(C)cc3c2[nH]c2cc(O)ccc23)O1 (stereo not shown) [Mahanine, mahanine]
- secondary metabolites in blood (mass spectroscopy) [1]: no production of secondary metabolites
- Creatinine (In vivo toxicity in mice; mouse, in vivo): 3.72 mg/dL
- Hb (In vivo toxicity in mice; mouse, in vivo): 13.64 gm/dl
- SGOT (In vivo toxicity in mice; mouse, in vivo): 174.0 Unit/ml
- SGPT (In vivo toxicity in mice; mouse, in vivo): 34.7 Unit/ml
- Urea (In vivo toxicity in mice; mouse, in vivo): 48.6 mg/dL
- tolerated dose (In vivo toxicity in mice; normal Balb/c mice, consecutive 20 days): 150 mg/kg/day
- Dissociation constant (KD) (kd/ka) (human Hsp90): 4.99 µM
- apoptosis (7-AAD+ve cells) (ME180 [2]): 80.5%
- dose enough to start significant downregulation of Akt level [3]: 15 µM
- IC50 (AsPC1): 17.2 ± 0.7 µM
- toxicity towards nonspecific tissues (lung, liver, spleen) [4]: no toxic effect
- IC50 (ME180 [5]): 14.6 µM
- dose needed to initiate dissociation of Hsp90-Cdc37 (Hsp90-Cdc37 complex; HeLa, 24 hr): 17.5 µM
- dose adequate to begin Hsp90-Cdc37 dissociation (Hsp90-Cdc37 complex; MIAPaCa2, 24 hr): 12.5 µM
- dose showing significant decrease of association of Hsp90-Cdc37 complex (Hsp90-Cdc37 complex; U87MG, 24 hr): 15 µM
